Test results as given in patent US11504339B2, “Compositions comprising urolithin a and uses thereof in treating kidney injury” (priority 2020, dated 2022).

How the values were obtained:
[1] = tested on: CIS-resistant A2780 ovarian cancer cells; assay: Cell viability of cisplatin-resistant A2780 cells, UA plus CIS; format: cell-based; details: alone vs combination at the same concentrations
[2] = tested on: intracellular NAD; assay: Intracellular NAD+ measurement in kidney cortex; format: in vivo, mouse; details: normalized to total protein
Protocol: Approximately 5 mg of kidney cortex from each mouse was homogenized in cold RIPA buffer. After centrifugation, approximately 50 μL of supernatant was processed in triplicate using Amplite Fluorimetric NAD Assay Kit (AAT Bioquest, Sunnyvale, Calif.) while following manufacturer instructions. Fluorescence at 420/480 nm was measured using the plate reader (Tecan Infinite M200) and NAD concentration determined using a standard curve constructed on the same day of the experiment. Protein concentration of the lysate was determined by the Bradford Assay (Bio-Rad) and served as normalization.

[3] = tested on: NRF2, P53, mitochondrial OXPHOS complexes; assay: Western blot of kidney cortex; format: in vivo, mouse
Protocol: Approximately 5 mg of kidney cortex from each mouse was homogenized in cold RIPA buffer. After centrifugation, the supernatant was collected and protein concentration was determined using the Bradford assay (Thermo Scientific, Waltham, Mass.). Approximately 30 μg of protein was subjected to denaturing SDS-PAGE. The gel-separated proteins were transferred to a 0.45 μm nitrocellulose membrane, followed by standard Western blot protocol.
Primary antibodies Nrf2 (CAT #MBS2538072, MyBiosource, San Diego, Calif.), P53 (CAT #928, Cell Signaling Technology, Danvers, Mass.), and GAPDH (CAT #2118, Cell Signaling Technology) were diluted at 1:1000, while Total OXPHOS Cocktail (CAT #ab110413, Abcam, Los Angeles, Calif.) was diluted at 1:250. HRP-conjugated secondary antibodies (Thermo Scientific): goat anti-mouse IgG and anti-rabbit igG were diluted at 1:5000. The ECL reagent was used to develop protein signals, and images were captured by the ChemiDoc imaging system (Bio-Rad, Hercules, Calif.).

[4] = tested on: miRs and stress responsive genes; assay: Real-time PCR of renal cortex (miRs and stress responsive genes); format: in vivo, mouse
Protocol: Approximately 5 mg of kidney cortex was homogenized in Trizol solution. Micro RNA and large RNA were sequentially extracted and purified with E.Z.N.A. Micro RNA Kit (Omega Bio-tek, Norcross, Ga.) following manufacturer instructions. RNA concentrations were determined using the NanoQuant plate reader (Tecan Infinite M200). Reverse transcription for large RNA and miRNA were separately carried out using iScript gDNA Clear cDNA Synthesis Kit (Bio-Rad) and the miScript II RT Kit (Qiagen, Hilden, Germany), respectively. HiSpec Buffer was used in the latter RT reaction to target mature miRNA, and 1 μg of template RNA was used for all RT reactions. The CFX96 Touch Real-Time PCR Detection System (Bio-Rad) was used for qPCR. For gene expression, cDNA was amplified using appropriate primers (see Table 1), along with the iTaq Universal SYBR Green Supermix (Bio-Rad). Primers were pre-designed and validated by Harvard PGA Primerbank.
For miRNA expression, cDNA was amplified using miScript Primer Assays for miR-192-5p and miR-140-5p (Qiagen), along with the miScript SYBR Green PCR Kit (Qiagen). ΔCt values were calculated with β-actin (gene expression) or RNU6 (miRNA) normalization, and fold change of the gene of interest between groups was expressed as 2^−ΔΔCt.

[5] = tested on: renal apoptosis; assay: TUNEL immunofluorescence of kidney sections; format: in vivo, mouse
Text: Kidney sections were deparaffinized in xylene, rehydrated, and washed. After antigen retrieval, tissue sections were stained with fluorescein-labeled terminal deoxynucleotidyl transferase dUTP nick end labeling (TUNEL) kit (Roche, Mannheim, Germany). Slides were mounted using Vectashield Mounting Media containing DAPI (Vector Laboratories, Burlingame, Calif.). Tissue sections were imaged using the EVOS FL fluorescence microscope at 20× original magnification. TUNEL-positive cells from ten fields per kidney section and five sections per group of at least four animals were quantified using the ImageJ software's particle counter by thresholding for green fluorescence.

[6] = CIS control compared to the P2Ns-GA UA and negative control groups
[7] = CIS control compared with the P2Ns-GA UA and negative control groups
[8] = at sacrifice, normalized to U6 snRNA

`O=c1oc2cc(O)ccc2c2ccc(O)cc12` [UA, 3,8-Dihydroxybenzo[c]chromen-6-one] was tested, and the “cell death / cell viability” value [1] was “failed to cause cell death”.
In the case of `N.N.[Cl][Pt][Cl]` [CIS, Cis-diamminedichloridoplatinum], the “cell death / cell viability” value [1] is reported as “failed to cause cell death”, the “intracellular NAD” value [2] is reported as “reductions” and the “mitochondrial complexes I, II, III, and IV / deficiencies in oxidative phosphorylation” value ([3]; Western blot, kidney cortex) is reported as “marked decreases”. For the same compound, the “renal expression of the NRF2 protein” value ([3]; compared to the P2Ns-GA UA and negative control groups) was “significantly higher”, the “renal expression of Mt1 (NRF2-inducible gene)” value [4, 6] was 8-12 fold and the “renal expression of Srxn1 (NRF2-inducible gene)” value [4, 6] was 4-5 fold. For the same compound, the “renal expression of Txnrd1 (NRF2-inducible gene)” value [4, 6] was 7-14 fold, the “renal expression of Atf3 (P53-inducible gene)” value [4, 7] was 3-4 fold and the “renal expression of Cdkn1a (P21) (P53-inducible gene)” value [4, 7] was 7-49 fold. The “renal expression of Trp53inp1 (SIP) (P53-inducible gene)” value [4, 7] was 9-12 fold, the “renal miR-140-5p expression” value [4, 8] was “reductions” and the “renal miR-192-5p expression” value [4, 8] was “reductions”. For the same compound, the PARP1 expression ([4]; normalized to β-actin) was “elevated”, the “expression of genes associated with hypoxia (HIF1α, Pgk1)” value ([4]; normalized to β-actin) was “decreased expression” and the “renal apoptosis (TUNEL positive cells)” value [5] was “increased incidences”.
